Laboratory results as given in patent publication EP2842965A1, “Neuromedin U analogs comprising serum albumin binding amino acid residue” (Gubra ApS, priority 2013, dated 2015).
pEC50: −log10 of the molar value. Starred links: 1 amine or outer side, 2 acyl side, 3 side chain; linkers in the order of their positions; H or OH if unused. Residues, ends and D or L forms follow the SMILES beside them. Groups on a side chain read outwards from the residue. *: point of attachment. γGlu = O=C(O)[C@H](CCC(=O)[*:2])N[*:1]; Palmitoyl = CCCCCCCCCCCCCCCC(=O)*

Target: T1, Neuromedin U receptor 1 (NMUR1) (Homo sapiens, UniProt Q9HB89)
T1 construct: expressed in transfected cells; host or cells: HEK293 cells, transient calcium phosphate transfection
T1 sequence (Q9HB89 1-426): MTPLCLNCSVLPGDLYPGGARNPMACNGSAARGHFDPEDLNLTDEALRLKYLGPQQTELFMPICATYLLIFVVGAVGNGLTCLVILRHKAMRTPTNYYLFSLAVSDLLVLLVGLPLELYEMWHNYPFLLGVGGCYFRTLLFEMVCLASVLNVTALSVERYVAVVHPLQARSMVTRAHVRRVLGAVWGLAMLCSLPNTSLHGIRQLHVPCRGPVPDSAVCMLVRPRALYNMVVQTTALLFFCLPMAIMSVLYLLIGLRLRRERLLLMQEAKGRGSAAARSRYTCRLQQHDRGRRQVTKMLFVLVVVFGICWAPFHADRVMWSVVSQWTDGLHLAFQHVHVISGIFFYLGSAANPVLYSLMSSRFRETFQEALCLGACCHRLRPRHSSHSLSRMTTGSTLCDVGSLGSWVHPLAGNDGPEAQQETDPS
Assay: Functional assay (IP3 SPA-ysi assay) in HEK293 cells transfected with NMUR1
Type: cell-based
Settings: HEK293 cells transiently transfected with NMUR1; head says cAMP, method describes IP3 SPA readout
Description: All compounds were dissolved in dimethyl sulfoxide (DMSO), and then water was added (total DMSO conc. was 80%). The stock concentration was 1 mM for all the compounds. Stocks were alliquoted and frozen -20°C.
The day before each assay a new standard row was prepared by dilution of the stock solution in assay buffer (1 mM acetic acid + 0.1% bovine serum albumin (BSA)). The following concentrations were prepared (depending on the ligand potency): 10^-5, 10^-6, 10^-7, 10^-7.5, 10^-8, 10^-8.5, 10^-9, 10^-10, 10^-11, 10^-12 M.
Cell cultures: The HEK293 cells are grown in (DMEM31966 glutamax supplemented with 10% FBS (fetal bovine serum) and 1% penicillin G and streptomycin) and incubated at 37°C with 10% CO2 in a humidified atmosphere. The cells were split as follows. HEK293 cells approximately 80% confluent was used. The cells were removed from the bottom of the bottle by removing the media (DMEM31966 glutamax supplemented with 10% FBS and 1% penicillin G and streptomycin), rinsed with 5 mL phosphate buffered saline (PBS) and shaken gently. […]
IP3 SPA-ysi assay: The media was removed and the plates were washed with 200 µL of Hank's balanced salt solution (HBSS) (Gibco, Life Technologies). […] The plates were sealed and shaken on high speed for 30 min, then centrifuged for 5 min at 1500 rpm and counted with 8 hours delay in the top counter. […]

With `CCCCCCCCCCCCCCCC(=O)N[C@@H](CCC(=O)NCCCC[C@H](NC(=O)[C@H](CCC(=O)O)NC(=O)[C@H](CC(=O)O)NC(=O)[C@@H](NC(=O)[C@H](CCCNC(=N)N)NC(=O)[C@@H](N)Cc1ccccc1)C(C)C)C(=O)N[C@@H](Cc1ccccc1)C(=O)N[C@@H](CCC(N)=O)C(=O)N[C@@H](CO)C(=O)N1CCC[C@H]1C(=O)N[C@@H](Cc1ccccc1)C(=O)N[C@@H](C)C(=O)N[C@@H](CO)C(=O)N[C@@H](CCC(N)=O)C(=O)N[C@@H](CO)C(=O)N[C@@H](CCCNC(=N)N)C(=O)NCC(=O)N[C@@H](Cc1ccc(O)cc1)C(=O)N[C@@H](Cc1ccccc1)C(=O)N[C@@H](CC(C)C)C(=O)N[C@@H](Cc1ccccc1)C(=O)N[C@@H](CCCNC(=N)N)C(=O)N1CCC[C@H]1C(=O)N[C@@H](CCCNC(=N)N)C(=O)N[C@@H](CC(N)=O)C(N)=O)C(=O)O` [SEQ ID NO 14] (H-FRVDEK([γGlu-Palmitoyl])FQSPFASQSRGYFLFRPRN-NH2) as the compound, how does the pEC50 read?
The pEC50 was 7.29.
